PMC10175918 (Communications Biology, 2023)
Where two headings read alike, the source gives them in different places. One block for each compound: values may come before it.

Columns and labels:
348 GPCRs [1] = target: T1, 348 GPCRs (Homo sapiens, UniProt O43613); assay: TGFα-shedding assay-based GPCR screening with chimeric Gα subunit proteins; format: cell-based; conditions: 10µM, Favipiravir 100μM
T1 construct: expressed in transfected cells; host or cells: HEK293A
T1 sequence (O43613 1-425): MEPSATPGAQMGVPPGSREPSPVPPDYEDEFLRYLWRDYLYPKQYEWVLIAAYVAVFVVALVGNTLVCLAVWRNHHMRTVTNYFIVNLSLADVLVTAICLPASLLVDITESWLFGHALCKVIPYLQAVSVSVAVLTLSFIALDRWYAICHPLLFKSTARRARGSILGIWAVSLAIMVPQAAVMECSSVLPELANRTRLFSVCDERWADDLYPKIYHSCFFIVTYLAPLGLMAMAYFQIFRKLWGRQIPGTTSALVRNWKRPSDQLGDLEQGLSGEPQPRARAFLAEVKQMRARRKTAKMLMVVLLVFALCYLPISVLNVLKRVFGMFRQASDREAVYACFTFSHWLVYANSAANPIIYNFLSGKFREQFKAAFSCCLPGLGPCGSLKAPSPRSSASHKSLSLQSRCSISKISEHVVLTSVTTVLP

348 GPCRs [2] = target: T2, 348 GPCRs (Homo sapiens, UniProt Q9H3N8); assay: as above; format: cell-based; conditions: 10µM, Favipiravir 100μM
T2 construct: expressed in transfected cells; host or cells: HEK293A

[3] = target: T3, G protein-coupled receptor 17 short (Homo sapiens, UniProt Q13304); assay: cell-based; design: species or system HEK293A; AP-TGFα shedding assay, transfected GPCR plus chimeric Gα mixture, AP release as % of TPA response; conditions: HEK293-A
T3 construct: gene GPR17; short isoform
T3 sequence (Q13304 whole entry, canonical isoform): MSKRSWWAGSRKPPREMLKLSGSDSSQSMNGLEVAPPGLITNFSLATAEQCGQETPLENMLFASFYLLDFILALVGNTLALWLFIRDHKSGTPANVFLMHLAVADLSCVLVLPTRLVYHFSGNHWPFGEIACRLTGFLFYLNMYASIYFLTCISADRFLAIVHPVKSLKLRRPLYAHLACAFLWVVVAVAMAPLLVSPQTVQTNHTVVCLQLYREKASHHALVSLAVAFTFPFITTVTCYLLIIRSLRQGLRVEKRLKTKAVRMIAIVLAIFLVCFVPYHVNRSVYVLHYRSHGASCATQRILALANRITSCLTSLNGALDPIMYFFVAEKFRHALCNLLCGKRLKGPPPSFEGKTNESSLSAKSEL

[4] = target: T4, G protein-coupled receptor 68 long (Homo sapiens, UniProt Q15743); assay: cell-based; design: species or system HEK293A; AP-TGFα shedding assay, transfected GPCR plus chimeric Gα mixture, AP release as % of TPA response; conditions: HEK293-A
T4 construct: gene GPR68; long isoform
T4 sequence (Q15743 whole entry, canonical isoform): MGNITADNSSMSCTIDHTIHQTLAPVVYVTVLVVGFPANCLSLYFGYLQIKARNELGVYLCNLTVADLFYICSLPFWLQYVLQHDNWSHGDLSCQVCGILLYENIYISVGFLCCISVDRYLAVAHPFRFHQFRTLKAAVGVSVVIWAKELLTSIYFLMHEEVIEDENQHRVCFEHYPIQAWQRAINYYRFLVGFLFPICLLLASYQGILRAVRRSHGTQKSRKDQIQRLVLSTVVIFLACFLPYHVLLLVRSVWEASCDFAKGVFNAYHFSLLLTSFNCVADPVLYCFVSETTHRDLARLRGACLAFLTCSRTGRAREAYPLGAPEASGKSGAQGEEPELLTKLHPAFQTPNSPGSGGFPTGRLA

adenosine A2a receptor = target: T5, adenosine A2a receptor (Homo sapiens, UniProt P29274); assay: cell-based; design: species or system HEK293A; AP-TGFα shedding assay, transfected GPCR plus chimeric Gα mixture, AP release as % of TPA response; conditions: HEK293-A
T5 construct: gene ADORA2A
T5 sequence (P29274 whole entry): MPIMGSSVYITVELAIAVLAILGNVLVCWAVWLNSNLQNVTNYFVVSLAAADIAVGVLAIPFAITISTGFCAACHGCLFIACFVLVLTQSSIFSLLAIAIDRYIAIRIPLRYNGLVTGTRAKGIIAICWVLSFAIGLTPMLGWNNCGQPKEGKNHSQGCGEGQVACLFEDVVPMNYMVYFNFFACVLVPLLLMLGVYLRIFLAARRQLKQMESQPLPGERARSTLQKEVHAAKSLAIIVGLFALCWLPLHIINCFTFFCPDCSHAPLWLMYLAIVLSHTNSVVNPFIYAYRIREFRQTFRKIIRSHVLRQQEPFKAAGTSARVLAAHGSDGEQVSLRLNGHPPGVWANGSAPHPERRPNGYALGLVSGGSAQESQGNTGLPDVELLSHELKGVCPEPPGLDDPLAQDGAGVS

[5] = target: T6, hypocretin (orexin) receptor 2 (Homo sapiens, UniProt O43614); assay: cell-based; design: species or system HEK293A; AP-TGFα shedding assay, transfected GPCR plus chimeric Gα mixture, AP release as % of TPA response; conditions: HEK293-A
T6 construct: gene HCRTR2
T6 sequence (O43614 1-444): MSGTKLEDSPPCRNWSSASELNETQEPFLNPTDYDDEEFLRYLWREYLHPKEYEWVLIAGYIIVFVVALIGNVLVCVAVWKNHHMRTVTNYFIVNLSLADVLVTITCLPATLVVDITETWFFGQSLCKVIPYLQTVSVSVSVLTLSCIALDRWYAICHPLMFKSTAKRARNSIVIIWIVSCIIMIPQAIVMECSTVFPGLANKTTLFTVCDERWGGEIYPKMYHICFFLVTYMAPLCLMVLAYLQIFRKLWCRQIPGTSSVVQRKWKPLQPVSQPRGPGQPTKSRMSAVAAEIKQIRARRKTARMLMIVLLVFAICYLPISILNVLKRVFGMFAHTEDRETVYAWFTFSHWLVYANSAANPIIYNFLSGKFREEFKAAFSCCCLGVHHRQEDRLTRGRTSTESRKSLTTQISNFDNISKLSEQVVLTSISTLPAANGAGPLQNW

[6] = target: T7, lysophosphatidic acid receptor 4 (Homo sapiens, UniProt Q99677); assay: cell-based; design: species or system HEK293A; AP-TGFα shedding assay, transfected GPCR plus chimeric Gα mixture, AP release as % of TPA response; conditions: HEK293-A
T7 construct: gene LPAR4
T7 sequence (Q99677 whole entry): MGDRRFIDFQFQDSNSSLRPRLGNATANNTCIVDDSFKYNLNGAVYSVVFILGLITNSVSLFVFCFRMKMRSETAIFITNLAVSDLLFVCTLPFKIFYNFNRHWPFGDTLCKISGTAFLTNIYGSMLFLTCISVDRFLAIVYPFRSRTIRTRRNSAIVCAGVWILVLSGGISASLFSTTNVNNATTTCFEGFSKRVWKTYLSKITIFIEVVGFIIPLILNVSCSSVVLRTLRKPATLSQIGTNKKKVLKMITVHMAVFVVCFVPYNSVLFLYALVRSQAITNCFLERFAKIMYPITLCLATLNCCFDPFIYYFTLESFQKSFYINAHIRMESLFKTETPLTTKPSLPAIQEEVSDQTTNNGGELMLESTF

[7] = target: T8, purinergic receptor P2Y, G-protein coupled, 1 (Homo sapiens, UniProt P47900); assay: cell-based; design: species or system HEK293A; AP-TGFα shedding assay, transfected GPCR plus chimeric Gα mixture, AP release as % of TPA response; conditions: HEK293-A
T8 construct: gene P2RY1
T8 sequence (P47900 whole entry): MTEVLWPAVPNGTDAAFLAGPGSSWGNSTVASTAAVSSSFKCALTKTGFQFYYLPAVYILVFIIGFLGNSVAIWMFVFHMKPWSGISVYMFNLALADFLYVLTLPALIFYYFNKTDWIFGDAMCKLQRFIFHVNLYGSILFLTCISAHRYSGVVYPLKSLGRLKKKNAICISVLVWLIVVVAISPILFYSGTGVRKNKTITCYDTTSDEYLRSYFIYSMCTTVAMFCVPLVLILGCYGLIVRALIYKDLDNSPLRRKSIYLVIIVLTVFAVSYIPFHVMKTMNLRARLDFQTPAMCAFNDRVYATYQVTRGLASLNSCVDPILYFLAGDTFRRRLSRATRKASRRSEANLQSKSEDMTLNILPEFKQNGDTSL

[8] = target: T9, relaxin/insulin-like family peptide receptor 1 (Homo sapiens, UniProt Q9HBX9); assay: cell-based; design: species or system HEK293A; AP-TGFα shedding assay, transfected GPCR plus chimeric Gα mixture, AP release as % of TPA response; conditions: HEK293-A
T9 construct: gene RXFP1
T9 sequence (Q9HBX9 1-757): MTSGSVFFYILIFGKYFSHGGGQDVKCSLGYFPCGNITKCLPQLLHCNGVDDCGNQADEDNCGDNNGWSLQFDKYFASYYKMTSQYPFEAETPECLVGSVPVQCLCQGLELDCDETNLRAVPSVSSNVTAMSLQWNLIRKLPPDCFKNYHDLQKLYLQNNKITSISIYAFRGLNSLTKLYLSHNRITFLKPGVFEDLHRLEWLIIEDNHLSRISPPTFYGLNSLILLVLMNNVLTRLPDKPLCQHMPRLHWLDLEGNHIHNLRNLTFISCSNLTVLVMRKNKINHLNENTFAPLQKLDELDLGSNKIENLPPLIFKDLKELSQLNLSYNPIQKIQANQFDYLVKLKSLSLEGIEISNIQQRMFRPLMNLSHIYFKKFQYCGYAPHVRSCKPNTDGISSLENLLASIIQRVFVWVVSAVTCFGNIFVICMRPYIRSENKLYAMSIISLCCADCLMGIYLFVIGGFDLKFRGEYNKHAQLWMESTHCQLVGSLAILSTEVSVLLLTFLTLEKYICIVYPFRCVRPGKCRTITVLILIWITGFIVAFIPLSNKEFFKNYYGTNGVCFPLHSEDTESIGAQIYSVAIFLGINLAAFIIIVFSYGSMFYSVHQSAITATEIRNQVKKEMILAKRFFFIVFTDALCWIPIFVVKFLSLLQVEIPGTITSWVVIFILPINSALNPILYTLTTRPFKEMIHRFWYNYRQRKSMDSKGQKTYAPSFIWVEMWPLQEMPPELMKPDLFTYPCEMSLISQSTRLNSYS

[9] = read-out: % GPCR activation compared to TPA, HCRTR1 (hypocretin (orexin) receptor 1)
[10] = read-out: % GPCR activation compared to TPA, H4 (histamine receptor H4)
[11] = read-out: % GPCR activation of 10μM Sofosbuvir compared to TPA
[12] = HCRTR1 (hypocretin (orexin) receptor 1), read-out: % GPCR activation compared to TPA
[13] = H4 (histamine receptor H4), read-out: % GPCR activation compared to TPA
[14] = read-out: % GPCR activation of 10µM Molnupiravir compared to TPA
[15] = read-out: % GPCR activation of 100μM Favipiravir compared to TPA
[16] = read-out: % GPCR activation of 10μM GS441524 compared to TPA
[17] = read-out: % GPCR activation of 10µM Remdesivir compared to TPA

activation at 100 µM (348 GPCRs [1]; [12]): 1.7% | activation at 100 µM (348 GPCRs [2]; [13]): -3.71% | activity at 10 µM [3, 14]: 0.174% | activity at 10 µM [4, 14]: -160% | activity at 10 µM (adenosine A2a receptor; [14]): -1.95% | activity at 10 µM [5, 14]: 0.477% | activity at 10 µM [6, 14]: -0.213% | activity at 10 µM [7, 14]: -11.8% | activity at 10 µM [8, 14]: -0.957%
Compound: CC(C)C(=O)OC[C@H]1O[C@@H](n2ccc(NO)nc2=O)[C@H](O)[C@@H]1O [molnupiravir]

activation at 100 µM (348 GPCRs [1]; [12]): 12.9% | activation at 100 µM (348 GPCRs [2]; [13]): 1.77% | activity at 100 µM [3, 15]: -0.501% | activity at 100 µM [4, 15]: 5.02% | activity at 100 µM (adenosine A2a receptor; [15]): 2.34% | activity at 100 µM [5, 15]: 0.725% | activity at 100 µM [6, 15]: -0.546% | activity at 100 µM [7, 15]: 0.43% | activity at 100 µM [8, 15]: 0.274%
Compound: NC(=O)c1nc(F)cnc1O [favipiravir, 6-fluoro-3-hydroxy-2-pyrazinecarboxamide]

The remaining lines, values behind:

Compound: CC(C)OC(=O)[C@H](C)N[P@](=O)(OC[C@H]1O[C@@H](n2ccc(=O)[nH]c2=O)[C@](C)(F)[C@@H]1O)Oc1ccccc1 [sofosbuvir]
activation at 100 µM (348 GPCRs [1]; [9]): -0.162% | activation at 100 µM (348 GPCRs [2]; [10]): -3.28% | activity at 10 µM [3, 11]: 1.81% | activity at 10 µM [4, 11]: -162% | activity at 10 µM (adenosine A2a receptor; [11]): -2.15% | activity at 10 µM [5, 11]: -1.97% | activity at 10 µM [6, 11]: 3.13% | activity at 10 µM [7, 11]: -4.63% | activity at 10 µM [8, 11]: 0.456%

Compound: N#C[C@@]1(c2ccc3c(N)ncnn23)O[C@H](CO)[C@@H](O)[C@H]1O [GS441524]
activation at 100 µM (348 GPCRs [1]; [12]): 16.9% | activation at 100 µM (348 GPCRs [2]; [13]): 5.54% | activity at 10 µM [3, 16]: 2.36% | activity at 10 µM [4, 16]: 3.27% | activity at 10 µM (adenosine A2a receptor; [16]): 1.63% | activity at 10 µM [5, 16]: 2.17% | activity at 10 µM [6, 16]: 1.19% | activity at 10 µM [7, 16]: -0.459% | activity at 10 µM [8, 16]: -1.09%

Compound: CCC(CC)COC(=O)[C@H](C)N[P@](=O)(OC[C@H]1O[C@@](C#N)(c2ccc3c(N)ncnn23)[C@H](O)[C@@H]1O)Oc1ccccc1 [remdesivir]
activation at 100 µM (348 GPCRs [1]; [9]): 16.7% | activation at 100 µM (348 GPCRs [2]; [10]): 7.16% | activity at 10 µM [3, 17]: 2.96% | activity at 10 µM [4, 17]: -2.93% | activity at 10 µM (adenosine A2a receptor; [17]): 3.96% | activity at 10 µM [5, 17]: 0.000265% | activity at 10 µM [6, 17]: -0.0834% | activity at 10 µM [7, 17]: 11% | activity at 10 µM [8, 17]: -0.564%
